# Assay results as given in paper PMC7970697, “Inhibition and Induction by Poziotinib of Different Rat Cytochrome P450 Enzymes In Vivo and in an In Vitro Cocktail Method” (Frontiers in Pharmacology, 2021).
# pIC50, pKi: −log10 of the molar value. Like-named read-outs stand apart in the source and are kept apart here.
# Key:
# [1] = target: T1, cyp2d1 (Rattus norvegicus, UniProt P10633); experiment: Cocktail method IC50 in rat liver microsomes, dextromethorphan probe; assay type: in vitro ADME
# T1 sequence (P10633 1-504): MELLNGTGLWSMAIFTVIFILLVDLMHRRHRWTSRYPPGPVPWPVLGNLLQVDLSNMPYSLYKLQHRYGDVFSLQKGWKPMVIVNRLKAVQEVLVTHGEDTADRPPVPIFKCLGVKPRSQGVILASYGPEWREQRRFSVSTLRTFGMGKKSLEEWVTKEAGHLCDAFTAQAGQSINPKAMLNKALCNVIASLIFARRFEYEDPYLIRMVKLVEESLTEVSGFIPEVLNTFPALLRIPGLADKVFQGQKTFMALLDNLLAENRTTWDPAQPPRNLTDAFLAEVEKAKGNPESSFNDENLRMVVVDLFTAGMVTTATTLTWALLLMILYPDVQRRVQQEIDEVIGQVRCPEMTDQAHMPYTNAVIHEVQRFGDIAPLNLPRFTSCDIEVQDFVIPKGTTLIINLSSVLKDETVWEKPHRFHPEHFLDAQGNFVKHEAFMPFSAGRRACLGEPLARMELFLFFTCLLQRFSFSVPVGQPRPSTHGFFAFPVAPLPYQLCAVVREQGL
# Experimental: (§1) The cocktail method was employed to analyze the effects of poziotinib on cyp1a2, cyp2b1, cyp2c11, cyp2d1, cyp2e1, and cyp3a1/2. […] Then half-maximal inhibitory concentration (IC50) of poziotinib was determined with all of the CYPs. […]. To this cocktail, 1 mg/ml of RLMs, 100 mM potassium phosphate buffer (pH 7.4), poziotinib (1, 2.5, 5, 10, 25, 50, or 100 μM) were added to obtain a final volume of 200 μL. After pre-incubation of this mixture for 5 min in a shaking water bath at 37°C, 1 mM NADPH was added to start the reaction. The reactions were allowed to proceed for 30 min, after which 200 μL of acetonitrile and 20 μL of IS were added to terminate the reactions. The mixtures were vortexed for 30 s and centrifuged again at 13,000 rpm for 5 min.
# [2] = target: T2, cyp1a2 (Rattus norvegicus, UniProt P04799); experiment: Cocktail method IC50 in rat liver microsomes, phenacetin probe; assay type: in vitro ADME
# T2 construct: To this cocktail, 1 mg/ml of RLMs; from tissue; host or cells: rat liver microsomes, prepared in-house
# T2 sequence (P04799 1-513): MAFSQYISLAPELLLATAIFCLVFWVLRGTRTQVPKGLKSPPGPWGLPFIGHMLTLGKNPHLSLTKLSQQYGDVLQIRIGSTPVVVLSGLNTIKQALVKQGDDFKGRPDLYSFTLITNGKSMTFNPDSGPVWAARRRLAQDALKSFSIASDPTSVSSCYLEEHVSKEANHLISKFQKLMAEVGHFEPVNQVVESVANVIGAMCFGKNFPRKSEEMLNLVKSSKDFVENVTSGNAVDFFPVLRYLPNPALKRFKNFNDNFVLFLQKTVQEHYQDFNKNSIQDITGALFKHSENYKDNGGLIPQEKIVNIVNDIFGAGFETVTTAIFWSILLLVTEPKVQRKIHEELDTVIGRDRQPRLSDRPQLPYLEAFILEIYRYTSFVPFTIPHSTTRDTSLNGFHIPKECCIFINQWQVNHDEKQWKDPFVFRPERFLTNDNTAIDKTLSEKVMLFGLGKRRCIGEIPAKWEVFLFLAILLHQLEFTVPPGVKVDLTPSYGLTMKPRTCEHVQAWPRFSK
# Experimental: as §1
# [3] = target: T3, cyp2c11 (Rattus norvegicus, UniProt P08683); experiment: Effect of poziotinib on cyp2c11 activity in rats (tolbutamide pharmacokinetics); assay type: in vivo, Sprague-Dawley rats; set-up: from tissue; host or cells: living male Sprague-Dawley rats (whole animal); conditions: poziotinib 5 mg/kg oral 7 days, tolbutamide probe
# T3 sequence (P08683 1-500): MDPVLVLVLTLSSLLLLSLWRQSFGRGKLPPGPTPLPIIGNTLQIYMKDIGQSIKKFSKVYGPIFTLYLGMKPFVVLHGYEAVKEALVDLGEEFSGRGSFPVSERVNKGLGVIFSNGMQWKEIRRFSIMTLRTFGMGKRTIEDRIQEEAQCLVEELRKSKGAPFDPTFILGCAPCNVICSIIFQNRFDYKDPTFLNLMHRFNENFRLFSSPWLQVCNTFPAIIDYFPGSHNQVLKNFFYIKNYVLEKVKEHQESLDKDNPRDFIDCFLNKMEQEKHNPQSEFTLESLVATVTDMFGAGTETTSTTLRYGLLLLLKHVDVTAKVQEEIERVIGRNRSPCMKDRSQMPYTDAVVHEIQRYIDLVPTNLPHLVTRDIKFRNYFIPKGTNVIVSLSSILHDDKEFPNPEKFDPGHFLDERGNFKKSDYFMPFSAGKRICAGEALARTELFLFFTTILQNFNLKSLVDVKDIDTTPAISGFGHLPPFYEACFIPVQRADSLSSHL
# Experimental: (§2) Twelve male Sprague-Dawley rats (230 ± 20 g) were randomly divided into treated and control groups, with 6 in each group. […] The supernatant was mixed with 200 μL of acetonitrile and 20 μL of 0.5 μg/ml diazepam (IS), vortexed for 30 s, centrifuged at 13,000 rpm for 5 min, and the supernatant was injected into the UPLC-MS/MS system for analysis.
# (§3) Pharmacokinetic parameters were calculated using DAS software (Version 3.2.8). SPSS software (version 16.0; SPSS Inc., Chicago, IL, United States) was used to analyze the significance of differences between the main pharmacokinetic parameters. p < 0.05 was considered statistically significant. GraphPad (version 8.0; GraphPad Software Inc., San Diego, CA, United States) was used to calculate IC50 and plot the plasma concentration-time curves and inhibition plots (type of inhibition, time- and concentration-dependence).
# [4] = target: T3, cyp2c11; experiment: Mechanism of inhibition (Lineweaver-Burk plots), tolbutamide in RLMs; assay type: in vitro ADME; set-up: from tissue; host or cells: rat liver microsomes, prepared in-house
# Experimental: To elucidate the mechanism of inhibition of cyp2b1 and 2c11 by poziotinib, we examined the interaction of different concentrations of poziotinib with bupropion and tolbutamide, respectively. Poziotinib was preincubated with 1 mg/ml of RLMs and probe substrate in a 37°C shaking water bath for 5 min, following which NADPH was added and incubated for 30 min. The concentrations of poziotinib were 0, 2, 4, 8 and 16 μM for 2b1, 0, 5, 10 20 and 40 μM for 2c11. The concentrations of bupropion were 5, 10, 20, and 40 μM, and the concentrations of tolbutamide were 25, 50, 100, and 200 μM. Poziotinib was incubated with different concentrations of the probe substrates in triplicate. The reactions were carried out, stopped, and processed as described in 2.3. Lineweaver-Burk plots were graphed.
# [5] = system: cyp3a1/2; experiment: Effect of poziotinib on cyp3a1/2 activity in rats (midazolam pharmacokinetics); assay type: in vivo, Sprague-Dawley rats; conditions: poziotinib 5 mg/kg oral 7 days, midazolam probe
# Experimental: as §2, §3
structure (smiles),measurement,setting,value
C=CC(=O)N1CCC(Oc2cc3c(Nc4ccc(Cl)c(Cl)c4F)ncnc3cc2OC)CC1 [Poziotinib],inhibitory effect on cyp2d1 (in words),[1],weak inhibition
same,inhibitory effect on cyp2d1 (in words),[1]; listed as poziotinib,not obvious
same,IC50 at 30 min,"[1]; pH 7.4, probe dextromethorphan (10 μM), 10 μM dextromethorphan, cocktail, 30 min",62 µM
same,inhibitory effect on cyp1a2 (in words),[2],did not show any obvious inhibitory effect
same,pIC50,"[2]; 40 μM phenacetin, cocktail, 30 min",3.89
same,inhibitory effect on cyp1a2 (in words),[2]; listed as poziotinib,not obvious
same,effect on cyp2c11 activity in rats,[3],significantly inhibitory effect
same,type of inhibition of cyp2c11,[4]; Lineweaver-Burk plots,competitive
same,pKi,"[4]; rat liver microsomes, tolbutamide 25-200 μM, poziotinib 0-40 μM, secondary plot",4.75
same,effect on cyp3a1/2 activity in rats,[5],no significant inhibitory effect
